Test [1] concerns HCT-116. Kind of test: Antiproliferative activity against human HCT116 cells by SRB assay. In kind it is functional, cell-based. (In general: In SRB staining, fixed cells bind dye roughly in proportion to their protein.)
The subject of another test is HeLa. Kind of test: Antiproliferative activity against human HeLa cells by SRB assay. The format is functional, cell-based.
Test [2] deals with HCT-116. Briefly: Induction of microtubule disruption in human HCT116 cells assessed as change in microtubule architecture at 0.5 uM after 24 hrs by DAPI staining based confocal microscopic method. In kind it is functional, cell-based.
Test [3] has as its system HCT-116. Kind of test: Induction of Cyclin B1 accumulation in human HCT116 cells at 0.06 to 1 uM after 24 hrs by Western blot method. In kind it is functional, cell-based.
Test [4] deals with HCT-116. Briefly: Cell cycle arrest in human HCT116 cells assessed as accumulation at G2/M phase at 125 nM after 48 hrs by […]propidium iodide staining based flow cytometry (reference value: 1.62%). The format is functional. Background: Flow cytometry measures light scatter and fluorescence of single cells or particles in a stream.
The subject of the next test is A549. Briefly: Antiproliferative activity against human A549 cells by SRB assay. The format is functional, cell-based.
The species entered for a further test is Bos taurus. Kind of test: Inhibition of bovine tubulin polymerization at 125 to 725 nM measured every 60 secs intervals for 60 mins in presence of GTP by fluorescence assay.
For test [5], the system named is HCT-116. Briefly: Cell cycle arrest in human HCT116 cells assessed as accumulation at G2/M phase at 500 nM after 48 hrs by […]propidium iodide staining based flow cytometry (reference value: 1.62%). In kind it is functional.
Test [6] has as its system HCT-116. Briefly: Cell cycle arrest in human HCT116 cells assessed as accumulation at G1 phase at 500 nM after 48 hrs by […]propidium iodide staining based flow cytometry (reference value: 89.45%). In kind it is functional.
The subject of test [7] is HCT-116. Kind of test: Cell cycle arrest in human HCT116 cells assessed as accumulation at S phase at 500 nM after 48 hrs by […]propidium iodide staining based flow cytometry (reference value: 8.93%). In kind it is functional.
A further test is filed under the species Homo sapiens. Kind of test: Displacement of colchicine from tubulin (unknown origin) at 0.1 to 10 uM after 1 hr by fluorescence assay.
For test [8], the system named is HCT-116. Briefly: Cell cycle arrest in human HCT116 cells assessed as accumulation at G1 phase at 125 nM after 48 hrs by […]propidium iodide staining based flow cytometry (reference value: 89.45%). In kind it is functional.
The subject of test [9] is HCT-116. Briefly: Induction of apoptosis in human HCT116 cells assessed as early apoptotic cells at 0.5 uM after 24 hrs by annexin-V FITC/propidium iodide staining based flow cytometry (reference value: 1.08%). In kind it is functional.
The test system of test [10] is HCT-116. Briefly: Cell cycle arrest in human HCT116 cells assessed as accumulation at S phase at 125 nM after 48 hrs by […]propidium iodide staining based flow cytometry (reference value: 8.93%). In kind it is functional.
Test [11] deals with HCT-116. Briefly: Induction of apoptosis in human HCT116 cells assessed as late apoptotic cells at 0.5 uM after 24 hrs by annexin-V FITC/propidium iodide staining based flow cytometry (reference value: 0.96%). In kind it is functional.
Test [12] has as its system HCT-116. Briefly: Induction of apoptosis in human HCT116 cells assessed as necrotic cells at 0.5 uM after 24 hrs by annexin-V FITC/propidium iodide staining based flow cytometry (reference value: 0.03%). The format is functional.
The next test deals with SK-OV-3. Kind of test: Antiproliferative activity against human SKOV3 cells by SRB assay. In kind it is functional, cell-based.
A further test deals with MRC5. Kind of test: Antiproliferative activity against human MRC5 cells by SRB assay. In kind it is cell-based.
Test [13] concerns HCT-116. Kind of test: Induction of apoptosis in human HCT116 cells assessed as viable cells at 0.5 uM after 24 hrs by annexin-V FITC/propidium iodide staining based flow cytometry (reference value: 97.93%). The format is functional. Conditions: HCT-116, 24 h, read-out: Activity.
In another test the test system is MDA-MB-468. Kind of test: Antiproliferative activity against human MDA-MB-468 cells by SRB assay. The format is functional, cell-based.

Activity calls are given as the source filed them. The rule behind the calls is not given here.

The IC50 is the concentration at which inhibition is half-maximal.

For `COc1cc(NC(=O)c2cc(-c3ccc(C)cc3)nc3ccccc23)cc(OC)c1OC`, the IC50 turned out to be 0.2 µM in the test on HCT-116 [1]; 1.6 µM with HeLa; 5.7 µM with A549; 0.5 µM in the test with SK-OV-3; 31.9 µM with MRC5; 10.8 µM in the test with MDA-MB-468. For the same compound, the outcome in the test on HCT-116 [2] and in the test on HCT-116 [3] was Active. Further, the Activity in the test with HCT-116 [4] worked out at 48.17%; in the test with HCT-116 [5] it was 87.2%; in the test on HCT-116 [6], 4.93%; in the test with HCT-116 [7], 7.87%; with HCT-116 [8], 46.62%; with HCT-116 [9], 45.26%. Moreover, the Activity in the test with HCT-116 [10] stood at 5.21%; with HCT-116 [11] it was 39.47%; in the test with HCT-116 [12] it was 0.04%. The inhibition result in the test listed under Bos taurus and in the test filed under Homo sapiens was “Active” in each case. The viability at 0.5 µM in the test with HCT-116 [13] worked out at 15.2%.

These data come from ChEMBL document CHEMBL4043270, “Design, synthesis and biological evaluation of 2-phenylquinoline-4-carboxamide derivatives as a new class of tubulin polymerization inhibitors” (Bioorg Med Chem, 2017).
